# Results: ChEMBL document CHEMBL1201862, “PubChem BioAssay data set” (2004)
#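 Cells were grown in 96-well plates and exposed to each compound for 48 hours at five concentrations; endpoints were interpolated linearly between bracketing concentrations, or set to the highest concentration if not reached. GI50 = concentration required for 50% inhibition of growth.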 Active and inactive are the calls of the source. Cut-off read from the data, not from the text of the source: active = GI50 up to about 1.1 µM and inactive = higher.
# Key:
# Experiment in all cases: inhibition of tumour cell growth, NCI panel, 48 h
# [1] = test system: 786-0
# [2] = test system: A498
# [3] = test system: A549
# [4] = test system: ACHN
# [5] = test system: CAKI-1
# [6] = test system: CCRF-CEM
# [7] = test system: COLO 205
# [8] = test system: DLD-1
# [9] = test system: DMS-114
# [10] = test system: DMS-273
# [11] = test system: EKVX
# [12] = test system: HCC 2998
# [13] = test system: HCT-15
# [14] = test system: HL-60
# [15] = test system: HOP-18
# [16] = test system: HOP-62
# [17] = test system: HOP-92
# [18] = test system: HT-29
# [19] = test system: IGROV-1
# [20] = test system: K562
# [21] = test system: KM-20L2
# [22] = test system: KM12
# [23] = test system: LOX IMVI
# [24] = test system: M19-MEL
# [25] = test system: MOLT-4
# [26] = test system: Malme-3M
# [27] = test system: NCI-H226
# [28] = test system: NCI-H23
# [29] = test system: NCI-H460
# [30] = test system: NCI-H522
# [31] = test system: OVCAR-3
# [32] = test system: OVCAR-5
# [33] = test system: OVCAR-8
# [34] = test system: RPMI-8226
# [35] = test system: RXF 393
# [36] = test system: SF-268
# [37] = test system: SF-295
# [38] = test system: SF-539
# [39] = test system: SK-MEL-28
# [40] = test system: SK-MEL-2
# [41] = test system: SK-MEL-5
# [42] = test system: SK-OV-3
# [43] = test system: SN12C
# [44] = test system: SNB-75
# [45] = test system: SNB-78
# [46] = test system: SW-620
# [47] = test system: TK-10
# [48] = test system: U-251
# [49] = test system: UACC-257
# [50] = test system: UACC-62
# [51] = test system: UO-31
# [52] = test system: HCT-116
# [53] = test system: LXFL 529
# [54] = test system: M14
# [55] = test system: OVCAR-4
# [56] = test system: SNB-19
# [57] = test system: SR
# [58] = test system: XF498
compound,measurement,setting,value
Cc1ccc(/C=C/C(=O)c2sc(-n3nc(-c4ccccc4)cc3-c3ccccc3)nc2C)cc1,GI50,[1],> 100 µM (inactive)
same,GI50,[2],> 100 µM (inactive)
same,GI50,[3],> 100 µM (inactive)
same,GI50,[4],65.8 µM (inactive)
same,GI50,[5],12.4 µM (inactive)
same,GI50,[6],> 100 µM (inactive)
same,GI50,[7],> 100 µM (inactive)
same,GI50,[8],> 100 µM (inactive)
same,GI50,[9],10.6 µM (inactive)
same,GI50,[10],> 100 µM (inactive)
same,GI50,[11],34.8 µM (inactive)
same,GI50,[12],60.8 µM (inactive)
same,GI50,[13],57.7 µM
same,GI50,[14],36.4 µM (inactive)
same,GI50,[15],> 100 µM (inactive)
same,GI50,[16],> 100 µM (inactive)
same,GI50,[17],> 100 µM (inactive)
same,GI50,[18],55 µM (inactive)
same,GI50,[19],> 100 µM (inactive)
same,GI50,[20],77.8 µM (inactive)
same,GI50,[21],> 100 µM (inactive)
same,GI50,[22],> 100 µM (inactive)
same,GI50,[23],> 100 µM (inactive)
same,GI50,[24],> 100 µM (inactive)
same,GI50,[25],8.39 µM (inactive)
same,GI50,[26],> 100 µM (inactive)
same,GI50,[27],> 100 µM (inactive)
same,GI50,[28],> 100 µM (inactive)
same,GI50,[29],> 100 µM (inactive)
same,GI50,[30],87.5 µM (inactive)
same,GI50,[31],> 100 µM (inactive)
same,GI50,[32],> 100 µM (inactive)
same,GI50,[33],> 100 µM (inactive)
same,GI50,[34],> 100 µM (inactive)
same,GI50,[35],> 100 µM (inactive)
same,GI50,[36],> 100 µM (inactive)
same,GI50,[37],> 100 µM (inactive)
same,GI50,[38],> 100 µM (inactive)
same,GI50,[39],> 100 µM (inactive)
same,GI50,[40],> 100 µM (inactive)
same,GI50,[41],71.1 µM (inactive)
same,GI50,[42],> 100 µM (inactive)
same,GI50,[43],> 100 µM (inactive)
same,GI50,[44],4.26 µM (inactive)
same,GI50,[45],> 100 µM (inactive)
same,GI50,[46],> 100 µM (inactive)
same,GI50,[47],> 100 µM (inactive)
same,GI50,[48],> 100 µM (inactive)
same,GI50,[49],> 100 µM (inactive)
same,GI50,[50],> 100 µM (inactive)
same,GI50,[51],> 100 µM (inactive)
O=C(NCCOC(=O)CCCCCCCCC(=O)OCCNC(=O)NC(=O)c1cn(Cc2ccccc2)c(=O)[nH]c1=O)NC(=O)c1cn(Cc2ccccc2)c(=O)[nH]c1=O,GI50,[1],> 100 µM (inactive)
same,GI50,[2],> 100 µM (inactive)
same,GI50,[3],> 100 µM (inactive)
same,GI50,[4],> 100 µM (inactive)
same,GI50,[5],> 100 µM (inactive)
same,GI50,[7],> 100 µM (inactive)
same,GI50,[8],> 100 µM (inactive)
same,GI50,[9],> 100 µM (inactive)
same,GI50,[10],> 100 µM (inactive)
same,GI50,[11],> 100 µM (inactive)
same,GI50,[12],> 100 µM (inactive)
same,GI50,[52],> 100 µM (inactive)
same,GI50,[13],> 100 µM
same,GI50,[14],> 100 µM (inactive)
same,GI50,[16],> 100 µM (inactive)
same,GI50,[18],> 100 µM (inactive)
same,GI50,[19],> 100 µM (inactive)
same,GI50,[20],> 100 µM (inactive)
same,GI50,[21],> 100 µM (inactive)
same,GI50,[22],> 100 µM (inactive)
same,GI50,[23],> 100 µM (inactive)
same,GI50,[53],> 100 µM (inactive)
same,GI50,[54],> 100 µM (inactive)
same,GI50,[24],> 100 µM (inactive)
same,GI50,[25],> 100 µM (inactive)
same,GI50,[27],> 100 µM (inactive)
same,GI50,[28],> 100 µM (inactive)
same,GI50,[29],> 100 µM (inactive)
same,GI50,[30],> 100 µM (inactive)
same,GI50,[31],> 100 µM (inactive)
same,GI50,[55],> 100 µM (inactive)
same,GI50,[32],> 100 µM (inactive)
same,GI50,[33],> 100 µM (inactive)
same,GI50,[34],> 100 µM (inactive)
same,GI50,[36],> 100 µM (inactive)
same,GI50,[37],> 100 µM (inactive)
same,GI50,[38],> 100 µM (inactive)
same,GI50,[39],> 100 µM (inactive)
same,GI50,[40],> 100 µM (inactive)
same,GI50,[41],> 100 µM (inactive)
same,GI50,[42],> 100 µM (inactive)
same,GI50,[43],> 100 µM (inactive)
same,GI50,[56],> 100 µM (inactive)
same,GI50,[44],> 100 µM (inactive)
same,GI50,[45],> 100 µM (inactive)
same,GI50,[57],> 100 µM (inactive)
same,GI50,[46],> 100 µM (inactive)
same,GI50,[47],> 100 µM (inactive)
same,GI50,[48],> 100 µM (inactive)
same,GI50,[49],> 100 µM (inactive)
same,GI50,[50],> 100 µM (inactive)
same,GI50,[51],> 100 µM (inactive)
same,GI50,[58],> 100 µM (inactive)
CCOc1ccccc1NC(=O)C(=O)CC(=O)C1=C(C)Nc2ccccc2S1,GI50,[1],> 100 µM (inactive)
same,GI50,[2],> 100 µM (inactive)
same,GI50,[3],> 100 µM (inactive)
same,GI50,[4],> 100 µM (inactive)
same,GI50,[5],> 100 µM (inactive)
same,GI50,[6],> 100 µM (inactive)
same,GI50,[7],> 100 µM (inactive)
same,GI50,[8],> 100 µM (inactive)
same,GI50,[10],> 100 µM (inactive)
same,GI50,[11],> 100 µM (inactive)
same,GI50,[12],> 100 µM (inactive)
same,GI50,[52],> 100 µM (inactive)
same,GI50,[13],> 100 µM
same,GI50,[14],> 21.1 µM (inactive)
same,GI50,[16],> 100 µM (inactive)
same,GI50,[17],> 100 µM (inactive)
same,GI50,[18],> 100 µM (inactive)
same,GI50,[19],> 100 µM (inactive)
same,GI50,[20],> 30.5 µM (inactive)
same,GI50,[21],> 100 µM (inactive)
same,GI50,[22],> 100 µM (inactive)
same,GI50,[23],> 100 µM (inactive)
same,GI50,[53],> 100 µM (inactive)
same,GI50,[54],> 100 µM (inactive)
same,GI50,[24],> 100 µM (inactive)
same,GI50,[25],> 49.7 µM (inactive)
same,GI50,[26],> 100 µM (inactive)
same,GI50,[27],> 100 µM (inactive)
same,GI50,[28],> 100 µM (inactive)
same,GI50,[29],> 100 µM (inactive)
same,GI50,[30],> 100 µM (inactive)
same,GI50,[31],> 100 µM (inactive)
same,GI50,[55],> 100 µM (inactive)
same,GI50,[32],> 100 µM (inactive)
same,GI50,[33],> 100 µM (inactive)
same,GI50,[34],> 100 µM (inactive)
same,GI50,[35],> 100 µM (inactive)
same,GI50,[36],> 100 µM (inactive)
same,GI50,[37],> 100 µM (inactive)
same,GI50,[38],> 100 µM (inactive)
same,GI50,[39],> 100 µM (inactive)
same,GI50,[40],> 100 µM (inactive)
same,GI50,[41],> 100 µM (inactive)
same,GI50,[42],> 100 µM (inactive)
same,GI50,[43],> 100 µM (inactive)
same,GI50,[56],> 100 µM (inactive)
same,GI50,[44],> 100 µM (inactive)
same,GI50,[45],> 100 µM (inactive)
same,GI50,[46],> 100 µM (inactive)
same,GI50,[47],> 100 µM (inactive)
same,GI50,[48],> 100 µM (inactive)
same,GI50,[49],> 100 µM (inactive)
same,GI50,[50],> 100 µM (inactive)
same,GI50,[51],> 93.3 µM (inactive)
same,GI50,[58],> 100 µM (inactive)
CN=S(=O)(C[C@]1(O)CC2OC1C1OC(C)(C)OC21)c1ccccc1 (some centres not stated),GI50,[1],> 100 µM (inactive)
same,GI50,[2],> 100 µM (inactive)
same,GI50,[3],> 100 µM (inactive)
same,GI50,[4],> 100 µM (inactive)
same,GI50,[5],> 100 µM (inactive)
same,GI50,[6],> 100 µM (inactive)
same,GI50,[7],> 100 µM (inactive)
same,GI50,[9],> 100 µM (inactive)
same,GI50,[10],> 100 µM (inactive)
same,GI50,[11],> 100 µM (inactive)
same,GI50,[12],> 100 µM (inactive)
same,GI50,[52],> 100 µM (inactive)
same,GI50,[13],> 100 µM
same,GI50,[14],> 100 µM (inactive)
same,GI50,[16],> 100 µM (inactive)
same,GI50,[17],> 100 µM (inactive)
same,GI50,[18],> 100 µM (inactive)
same,GI50,[19],> 100 µM (inactive)
same,GI50,[20],> 100 µM (inactive)
same,GI50,[21],> 100 µM (inactive)
same,GI50,[22],> 100 µM (inactive)
same,GI50,[53],> 100 µM (inactive)
same,GI50,[54],> 100 µM (inactive)
same,GI50,[24],> 100 µM (inactive)
same,GI50,[25],> 100 µM (inactive)
same,GI50,[26],> 100 µM (inactive)
same,GI50,[27],> 100 µM (inactive)
same,GI50,[28],> 100 µM (inactive)
same,GI50,[29],> 100 µM (inactive)
same,GI50,[30],> 100 µM (inactive)
same,GI50,[31],> 100 µM (inactive)
same,GI50,[55],> 100 µM (inactive)
same,GI50,[32],> 100 µM (inactive)
same,GI50,[33],> 100 µM (inactive)
same,GI50,[34],> 100 µM (inactive)
same,GI50,[35],> 100 µM (inactive)
same,GI50,[36],> 100 µM (inactive)
same,GI50,[37],> 100 µM (inactive)
same,GI50,[38],> 100 µM (inactive)
same,GI50,[39],> 100 µM (inactive)
same,GI50,[40],> 100 µM (inactive)
same,GI50,[41],> 100 µM (inactive)
same,GI50,[42],> 100 µM (inactive)
same,GI50,[43],> 100 µM (inactive)
same,GI50,[56],> 100 µM (inactive)
same,GI50,[44],83 µM (inactive)
same,GI50,[45],> 100 µM (inactive)
same,GI50,[46],> 100 µM (inactive)
same,GI50,[47],> 100 µM (inactive)
same,GI50,[48],> 100 µM (inactive)
same,GI50,[49],> 100 µM (inactive)
same,GI50,[50],> 100 µM (inactive)
same,GI50,[58],> 100 µM (inactive)
